# Assay results from PubChem BioAssay AID230 (DTP/NCI, 2004).
# Values joined by “and” are separate entries in the source; they are usually repeats but may differ in a detail not shown here. Identical values can stand only once. Inconclusive results and toxic doses are left out.
# Test system: C3H/He mice, Gardner lymphosarcoma 6C3HED ip, survival T/C
# Assay: NCI In Vivo Anticancer Drug Screen. Data for tumor model Lymphosarcoma Gardner 6C3HED (intraperitoneal) in C3H/He mice
# Settings: higher = longer survival
# Protocol: The antitumor activity of compounds was measured in mice bearing transplantable tumors. Survival or tumor size were measured and the results are expressed as the measurement made in the treated group (T) divided by the measurement made in the vehicle treated control group (C). The tumor model used in this assay is Lymphosarcoma Gardner 6C3HED (intraperitoneal) in C3H/He mice
# [1] = endpoint: survival time, mean or median, dose: 5.0 mg/kg/injection, schedule: Q01DX010 (ip), vehicle: saline
# [2] = endpoint: survival time, mean or median, dose: 20.0 mg/kg/injection, schedule: Q01DX010 (ip), vehicle: saline
# [3] = endpoint: survival time, mean or median, dose: 0.5 mg/kg/injection, schedule: Q01DX010 (ip), vehicle: saline
# [4] = endpoint: survival time, mean or median, dose: 125.0 mg/kg/injection, schedule: Q01DX010 (ip), vehicle: saline
# [5] = endpoint: survival time, mean or median, dose: 250.0 mg/kg/injection, schedule: Q01DX010 (ip), vehicle: saline
# [6] = endpoint: survival time, mean or median, dose: 3.13 mg/kg/injection, schedule: Q01DX010 (ip), vehicle: saline
# [7] = endpoint: survival time, mean or median, dose: 6.25 mg/kg/injection, schedule: Q01DX010 (ip), vehicle: saline
# [8] = endpoint: survival time, mean or median, dose: 12.5 mg/kg/injection, schedule: Q01DX010 (ip), vehicle: saline
# [9] = endpoint: survival time, mean or median, dose: 25.0 mg/kg/injection, schedule: Q01DX010 (ip), vehicle: saline
# [10] = endpoint: survival time, mean or median, dose: 62.5 mg/kg/injection, schedule: Q01DX010 (ip), vehicle: saline
# [11] = endpoint: survival time, mean or median, dose: 500.0 mg/kg/injection, schedule: Q01DX010 (ip), vehicle: saline
# [12] = endpoint: survival time, mean or median, dose: 1.25 mg/kg/injection, schedule: Q01DX010 (ip), vehicle: saline
# [13] = endpoint: survival time, mean or median, dose: 2.5 mg/kg/injection, schedule: Q01DX010 (ip), vehicle: saline
# [14] = endpoint: survival time, mean or median, dose: 10.0 mg/kg/injection, schedule: Q01DX010 (ip), vehicle: saline
# [15] = endpoint: survival time, mean or median, dose: 250.0 micrograms/kg/injection, schedule: Q01DX010 (ip), vehicle: saline
# [16] = endpoint: survival time, mean or median, dose: 50.0 mg/kg/injection, schedule: Q01DX010 (ip), vehicle: saline
# [17] = endpoint: survival time, mean or median, dose: 16.0 mg/kg/injection, schedule: Q01DX010 (ip), vehicle: saline
# [18] = endpoint: survival time, mean or median, dose: 32.0 mg/kg/injection, schedule: Q01DX010 (ip), vehicle: saline
# [19] = endpoint: survival time, mean or median, dose: 40.0 mg/kg/injection, schedule: Q01DX010 (ip), vehicle: saline
smiles,measurement,setting,value
OCCOCCN1CCN(CCCN2c3ccccc3Sc3ccc(C(F)(F)F)cc32)CC1,T/C,[1],90 % of control
same,T/C,[2],90 % of control
N[C@@H](Cc1ccc(N(CCCl)CCCl)cc1)C(=O)O,T/C,[3],106 % of control
same,T/C,"endpoint: survival time, mean or median, dose: 2.0 mg/kg/injection, schedule: Q01DX010 (ip), vehicle: saline",150 % of control
same,T/C,"endpoint: survival time, mean or median, dose: 4.0 mg/kg/injection, schedule: Q01DX010 (ip), vehicle: saline",93 % of control
CCCSc1ncnc2nc[nH]c12,T/C,[4],95 % of control
same,T/C,[5],95 % of control
C[C@H]1C(=O)O[C@@H]2CCN3CC=C(COC(=O)[C@](C)(O)[C@@]1(C)O)[C@H]23,T/C,[6],100 % of control and 107 % of control
same,T/C,[7],93 % of control and 103 % of control
same,T/C,[8],100 % of control and 103 % of control
same,T/C,[9],111 % of control
c1ccc(CCSc2ncnc3nc[nH]c23)cc1,T/C,[10],96 % of control
same,T/C,[4],96 % of control and 100 % of control
same,T/C,[5],93 % of control and 96 % of control
same,T/C,[11],93 % of control and 96 % of control
CCN(CC)C(=S)S,T/C,[4],93 % of control
same,T/C,[11],96 % of control
Cc1cn(C2OC(CO)C(O)C2O)c(=O)[nH]c1=O (stereo not drawn),T/C,[10],100 % of control
same,T/C,[4],96 % of control and 100 % of control
same,T/C,[5],100 % of control
same,T/C,[11],103 % of control
CC[n+]1c(-c2ccccc2)c2cc(N)ccc2c2ccc(N)cc21,T/C,[12],117 % of control
same,T/C,[13],121 % of control
same,T/C,[1],117 % of control
same,T/C,[14],121 % of control
Nc1ncnc2c1ncn2C1OC(COC=O)C(O)C1O (stereo not drawn),T/C,"endpoint: median survival time, dose: 13.8 mg/kg/injection, schedule: Q01DX003 (ip), vehicle: saline",90 % of control
same,T/C,"endpoint: median survival time, dose: 13.8 mg/kg/injection, schedule: Q12HX006 (ip), vehicle: saline",104 % of control
same,T/C,"endpoint: median survival time, dose: 27.6 mg/kg/injection, schedule: Q01DX003 (ip), vehicle: saline",104 % of control
same,T/C,"endpoint: median survival time, dose: 27.6 mg/kg/injection, schedule: Q12HX006 (ip), vehicle: saline",104 % of control
same,T/C,"endpoint: median survival time, dose: 55.2 mg/kg/injection, schedule: Q01DX003 (ip), vehicle: saline",104 % of control
same,T/C,"endpoint: median survival time, dose: 55.2 mg/kg/injection, schedule: Q12HX006 (ip), vehicle: saline",120 % of control
Nc1nc(F)nc2c1ncn2C1OC(CO)C(O)C1O (stereo not drawn),T/C,[3],87 % of control
same,T/C,"endpoint: survival time, mean or median, dose: 1.0 mg/kg/injection, schedule: Q01DX010 (ip), vehicle: saline",87 % of control
same,T/C,[15],86 % of control
CC[C@@H](c1ccc(O)cc1)[C@@H](CC)c1ccc(O)cc1,T/C,"endpoint: survival time, mean or median, dose: 25.0 mg/kg/injection, schedule: Q01DX010 (sc), vehicle: water",96 % of control
same,T/C,"endpoint: survival time, mean or median, dose: 50.0 mg/kg/injection, schedule: Q01DX010 (sc), vehicle: water",93 % of control
same,T/C,"endpoint: survival time, mean or median, dose: 100.0 mg/kg/injection, schedule: Q01DX010 (sc), vehicle: water",93 % of control
COS(C)(=O)=O,T/C,[8],119 % of control
same,T/C,[9],300 % of control
same,T/C,[16],300 % of control
O=C(Nc1ccc(C2=NCCN2)cc1)c1cccc(C(=O)Nc2ccc(C3=NCCN3)cc2)c1,T/C,"endpoint: survival time, mean or median, dose: 8.0 mg/kg/injection, schedule: Q01DX010 (ip), vehicle: saline",95 % of control
same,T/C,[17],304 % of control
same,T/C,[18],304 % of control
same,T/C,"endpoint: survival time, mean or median, dose: 64.0 mg/kg/injection, schedule: Q01DX010 (ip), vehicle: saline",304 % of control
CCOC(=O)NP(=O)(N1CC1)N1CC1,T/C,[13],100 % of control and 107 % of control
same,T/C,[1],107 % of control and 117 % of control
same,T/C,[14],157 % of control
same,T/C,[2],92 % of control and 103 % of control
N=C(N)SCc1c2ccccc2c(CSC(=N)N)c2ccccc12,T/C,[13],300 % of control
same,T/C,[1],300 % of control
same,T/C,[14],300 % of control
same,T/C,[2],300 % of control
same,T/C,[19],192 % of control
Cc1n[nH]c(=O)[nH]c1=O,T/C,[4],106 % of control
same,T/C,[5],90 % of control
same,T/C,"endpoint: survival time, mean or median, dose: 1000.0 mg/kg/injection, schedule: Q01DX010 (ip), vehicle: saline",90 % of control
Nc1ncnc2c1ncn2C1OC(COP(=O)(O)O)C(O)C1O (stereo not drawn),T/C,"endpoint: median survival time, dose: 18.3 mg/kg/injection, schedule: Q01DX003 (ip), vehicle: saline",100 % of control
same,T/C,"endpoint: median survival time, dose: 18.3 mg/kg/injection, schedule: Q12HX006 (ip), vehicle: saline",109 % of control
same,T/C,"endpoint: median survival time, dose: 36.6 mg/kg/injection, schedule: Q01DX003 (ip), vehicle: saline",95 % of control
same,T/C,"endpoint: median survival time, dose: 36.6 mg/kg/injection, schedule: Q12HX006 (ip), vehicle: saline",111 % of control
same,T/C,"endpoint: median survival time, dose: 73.2 mg/kg/injection, schedule: Q01DX003 (ip), vehicle: saline",90 % of control
same,T/C,"endpoint: median survival time, dose: 73.3 mg/kg/injection, schedule: Q12HX006 (ip), vehicle: saline",104 % of control
CN(C)[C@@H]1C(=O)C(C(N)=O)=C(O)[C@@]2(O)C(=O)C3=C(O)c4c(O)cccc4C[C@H]3C[C@@H]12,T/C,"endpoint: survival time, mean or median, dose: 3.75 mg/kg/injection, schedule: Q01DX010 (ip), vehicle: saline",93 % of control
same,T/C,"endpoint: survival time, mean or median, dose: 7.5 mg/kg/injection, schedule: Q01DX010 (ip), vehicle: saline",90 % of control
same,T/C,"endpoint: survival time, mean or median, dose: 15.0 mg/kg/injection, schedule: Q01DX010 (ip), vehicle: saline",90 % of control
CS(=O)(=O)OCCN(CCOS(C)(=O)=O)c1ccc(N=O)cc1,T/C,"endpoint: survival time, mean or median, dose: 62.5 micrograms/kg/injection, schedule: Q01DX010 (ip), vehicle: saline",107 % of control
same,T/C,"endpoint: survival time, mean or median, dose: 125.0 micrograms/kg/injection, schedule: Q01DX010 (ip), vehicle: saline",111 % of control
same,T/C,[15],111 % of control
same,T/C,"endpoint: survival time, mean or median, dose: 500.0 micrograms/kg/injection, schedule: Q01DX010 (ip), vehicle: saline",92 % of control
[I][Hg][CH2]C1COC([CH2][Hg][I])CO1 (stereo not drawn),T/C,"endpoint: survival time, mean or median, dose: 1.56 mg/kg/injection, schedule: Q01DX010 (ip), vehicle: saline",93 % of control
same,T/C,[6],100 % of control
CN(C)c1ccc(/C=C/c2ccnc3ccccc23)cc1,T/C,[17],90 % of control
same,T/C,[18],93 % of control
CC1CN1P(=S)(N1CC1C)N1CC1C (stereo not drawn),T/C,[12],103 % of control
same,T/C,[13],100 % of control and 103 % of control
same,T/C,[1],92 % of control and 107 % of control
same,T/C,[14],100 % of control and 103 % of control
same,T/C,[2],107 % of control
NC(=O)n1cccn1,T/C,[9],89 % of control
same,T/C,[16],96 % of control
same,T/C,"endpoint: survival time, mean or median, dose: 100.0 mg/kg/injection, schedule: Q01DX010 (ip), vehicle: saline",96 % of control
same,T/C,"endpoint: survival time, mean or median, dose: 200.0 mg/kg/injection, schedule: Q01DX010 (ip), vehicle: saline",100 % of control
COc1ccc2c(c1OC)C(=O)O[C@@H]2[C@H]1c2c(cc3c(c2OC)OCO3)CCN1C,T/C,"endpoint: survival time, mean or median, dose: 31.3 mg/kg/injection, schedule: Q01DX010 (ip), vehicle: saline",90 % of control and 107 % of control
same,T/C,[10],100 % of control
same,T/C,[4],92 % of control
N#[N+]c1cnc([O-])[nH]c1=O,T/C,[12],123 % of control
same,T/C,[13],150 % of control
same,T/C,[1],106 % of control
CCN(CC)CCCC(C)Nc1c2ccc(Cl)cc2nc2ccc(OC)cc12 (stereo not drawn),T/C,[6],90 % of control
same,T/C,[7],90 % of control
same,T/C,[9],100 % of control
same,T/C,[16],112 % of control
S=P(N1CC1)(N1CC1)N1CC1,T/C,"endpoint: survival time, mean or median, dose: 0.75 mg/kg/injection, schedule: Q01DX010 (ip), vehicle: saline",100 % of control
same,T/C,"endpoint: survival time, mean or median, dose: 1.5 mg/kg/injection, schedule: Q01DX010 (ip), vehicle: saline",104 % of control and 105 % of control
same,T/C,"endpoint: survival time, mean or median, dose: 3.0 mg/kg/injection, schedule: Q01DX010 (ip), vehicle: saline",100 % of control and 110 % of control
same,T/C,"endpoint: survival time, mean or median, dose: 6.0 mg/kg/injection, schedule: Q01DX010 (ip), vehicle: saline",104 % of control and 115 % of control
Nc1nc(N)c2nc(CNc3ccc(C(=O)NC(CCC(=O)O)C(=O)O)cc3)cnc2n1 (stereo not drawn),T/C,"endpoint: survival time, mean or median, dose: 0.03 mg/kg/injection, schedule: Q01DX010 (ip), vehicle: other",95 % of control and 100 % of control
same,T/C,"endpoint: survival time, mean or median, dose: 0.05 mg/kg/injection, schedule: Q01DX010 (ip), vehicle: other",100 % of control and 110 % of control
same,T/C,"endpoint: survival time, mean or median, dose: 0.1 mg/kg/injection, schedule: Q01DX010 (ip), vehicle: other",100 % of control and 110 % of control
CN(Cc1cnc2nc(N)nc(N)c2n1)c1c(Cl)cc(C(=O)NC(CCC(=O)O)C(=O)O)cc1Cl (stereo not drawn),T/C,[14],300 % of control
same,T/C,[2],300 % of control
same,T/C,[19],300 % of control
same,T/C,"endpoint: survival time, mean or median, dose: 80.0 mg/kg/injection, schedule: Q01DX010 (ip), vehicle: saline",300 % of control
